From the supplement of paper PMC11208160 come the findings set out here.

The data set can be described thus: recombinant barcode read abundance after kanamycin selection (control-corrected) (log10(CPM+1)); higher = more efficient recombination; sequences stand for … in AGTGCAGAGAAAATCGGCCAGTTTTCTCTGCCTGCAGTCCGCATGCCGT…ATTTATGCAGCGGACTGCCTTTCTCCCAAAGTGATAAACCGGACAGTATCATGGACCGGTTTTCCCGGTAATCCGTATTTGCAAGGTTGGTTTCACT; site = the 11-nt target. Summed up: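 Recombination efficiency comes from barcode counts at recombinant junctions, converted to counts per million, averaged and corrected against the control. Values appear as log10(CPM+1). They were obtained from a pooled E. coli screen in which each oligo paired a target with an IS621 bridge RNA target-binding loop, and cells were plated in duplicate on chloramphenicol/ampicillin LB agar or on chloramphenicol/ampicillin/kanamycin with 0.1 mM IPTG.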
“ATGCTTTTTTGGGTTCTAACCTGTTGCCTAG [ATGCTTTCTAG_LTGcore_TT_RTGcore_CT] (site ATGCTTTCTAG) (LTG core: TT, RTG core: CT)”: the “recombinant barcode read abundance (log10)” value came to 0.239.
Next, “ATGTCCCAATGGGTTCTAACCTGTTGCTCAG [ATGTCCCCTGA_LTGcore_AA_RTGcore_CT] (site ATGTCCCCTGA) (LTG core: AA, RTG core: CT)”: 0.274.
Next, “ATGTCCCCTTGGGTTCTAACCTGTTGCTCAA [ATGTCCCCTGA_LTGcore_CT_RTGcore_TT] (site ATGTCCCCTGA) (LTG core: CT, RTG core: TT)”: 0.0803; “ATGTCCCCTTGGGTTCTAACCTGTTGCTCAG [ATGTCCCCTGA_LTGcore_CT_RTGcore_CT] (site ATGTCCCCTGA) (LTG core: CT, RTG core: CT)”: 1.46; “ATGTCCCCTTGGGTTCTAACCTGTTGCTCCC [ATGTCCCCTGA_LTGcore_CT_RTGcore_GG] (site ATGTCCCCTGA) (LTG core: CT, RTG core: GG)”: 0.175.
For “ATGTCCCCTTGGGTTCTAACCTGTTGCTCGA [ATGTCCCCTGA_LTGcore_CT_RTGcore_TC] (site ATGTCCCCTGA) (LTG core: CT, RTG core: TC)”, the “recombinant barcode read abundance (log10)” value came out at 0.0646.
Next, “ATGTCCCCTTGGGTTCTAACCTGTTGCTCTT [ATGTCCCCTGA_LTGcore_CT_RTGcore_AA] (site ATGTCCCCTGA) (LTG core: CT, RTG core: AA)”: 0.0454; “ATGTCCCGATGGGTTCTAACCTGTTGCTCTC [ATGTCCCCTGA_LTGcore_GA_RTGcore_GA] (site ATGTCCCCTGA) (LTG core: GA, RTG core: GA)”: 0.0444; “CATATTACGTGGGTTCTAACCTGTTGCCTAG [CATATTACTAG_LTGcore_CG_RTGcore_CT] (site CATATTACTAG) (LTG core: CG, RTG core: CT)”: 0.0547.
As to “CATATTACTTGGGTTCTAACCTGTTGCCTAA [CATATTACTAG_LTGcore_CT_RTGcore_TT] (site CATATTACTAG) (LTG core: CT, RTG core: TT)”, the “recombinant barcode read abundance (log10)” value was determined as 0.105.
Next, “CATATTACTTGGGTTCTAACCTGTTGCCTCA [CATATTACTAG_LTGcore_CT_RTGcore_TG] (site CATATTACTAG) (LTG core: CT, RTG core: TG)”: 0.0517; “CATATTACTTGGGTTCTAACCTGTTGCCTCT [CATATTACTAG_LTGcore_CT_RTGcore_AG] (site CATATTACTAG) (LTG core: CT, RTG core: AG)”: 0.0539.
Next, “CATATTACTTGGGTTCTAACCTGTTGCCTTC [CATATTACTAG_LTGcore_CT_RTGcore_GA] (site CATATTACTAG) (LTG core: CT, RTG core: GA)”: 0.084.
Consider “CATATTACTTGGGTTCTAACCTGTTGCCTTT [CATATTACTAG_LTGcore_CT_RTGcore_AA] (site CATATTACTAG) (LTG core: CT, RTG core: AA)”, for which the “recombinant barcode read abundance (log10)” value stood at 0.0756.
Next, “CATATTAGGTGGGTTCTAACCTGTTGCCTCC [CATATTACTAG_LTGcore_GG_RTGcore_GG] (site CATATTACTAG) (LTG core: GG, RTG core: GG)”: 0.117.
In the case of “CATATTATATGGGTTCTAACCTGTTGCCTAG [CATATTACTAG_LTGcore_TA_RTGcore_CT] (site CATATTACTAG) (LTG core: TA, RTG core: CT)” it was 0.0615; in that of “CATATTATCTGGGTTCTAACCTGTTGCCTAG [CATATTACTAG_LTGcore_TC_RTGcore_CT] (site CATATTACTAG) (LTG core: TC, RTG core: CT)”, 0.127.
In the case of “CATATTATTTGGGTTCTAACCTGTTGCCTAA [CATATTACTAG_LTGcore_TT_RTGcore_TT] (site CATATTACTAG) (LTG core: TT, RTG core: TT)” it was 0.0172; in that of “CATATTATTTGGGTTCTAACCTGTTGCCTAG [CATATTACTAG_LTGcore_TT_RTGcore_CT] (site CATATTACTAG) (LTG core: TT, RTG core: CT)”, 0; in that of “CGAGCCCAGTGGGTTCTAACCTGTTGCTGCT [CGAGCCCCTCA_LTGcore_AG_RTGcore_AG] (site CGAGCCCCTCA) (LTG core: AG, RTG core: AG)”, 0.189.
Consider “CGAGCCCATTGGGTTCTAACCTGTTGCTGAG [CGAGCCCCTCA_LTGcore_AT_RTGcore_CT] (site CGAGCCCCTCA) (LTG core: AT, RTG core: CT)”, for which the “recombinant barcode read abundance (log10)” value came out at 0.104.
In the case of “CGAGCCCCCTGGGTTCTAACCTGTTGCTGGG [CGAGCCCCTCA_LTGcore_CC_RTGcore_CC] (site CGAGCCCCTCA) (LTG core: CC, RTG core: CC)” it was 0.0674.
Next, “CGAGCCCCTTGGGTTCTAACCTGTTGCTGTA [CGAGCCCCTCA_LTGcore_CT_RTGcore_TA] (site CGAGCCCCTCA) (LTG core: CT, RTG core: TA)”: 0.68; “CGAGCCCGATGGGTTCTAACCTGTTGCTGAG [CGAGCCCCTCA_LTGcore_GA_RTGcore_CT] (site CGAGCCCCTCA) (LTG core: GA, RTG core: CT)”: 0.157; “CGAGCCCGGTGGGTTCTAACCTGTTGCTGCC [CGAGCCCCTCA_LTGcore_GG_RTGcore_GG] (site CGAGCCCCTCA) (LTG core: GG, RTG core: GG)”: 0.18.
Consider “CGAGCCCTATGGGTTCTAACCTGTTGCTGAG [CGAGCCCCTCA_LTGcore_TA_RTGcore_CT] (site CGAGCCCCTCA) (LTG core: TA, RTG core: CT)”, for which the “recombinant barcode read abundance (log10)” value was found to be 0.312.
Next, “CGAGCCCTCTGGGTTCTAACCTGTTGCTGGA [CGAGCCCCTCA_LTGcore_TC_RTGcore_TC] (site CGAGCCCCTCA) (LTG core: TC, RTG core: TC)”: 0.139; “CGCGCCCAGTGGGTTCTAACCTGTTGCGGAG [CGCGCCCCTCC_LTGcore_AG_RTGcore_CT] (site CGCGCCCCTCC) (LTG core: AG, RTG core: CT)”: 0.0753.
In the case of “CGCGCCCATTGGGTTCTAACCTGTTGCGGAT [CGCGCCCCTCC_LTGcore_AT_RTGcore_AT] (site CGCGCCCCTCC) (LTG core: AT, RTG core: AT)” it was 0.0457.
In the case of “CGCGCCCCTTGGGTTCTAACCTGTTGCGGTC [CGCGCCCCTCC_LTGcore_CT_RTGcore_GA] (site CGCGCCCCTCC) (LTG core: CT, RTG core: GA)” it was 0.041; in that of “CGCGCCCGCTGGGTTCTAACCTGTTGCGGAG [CGCGCCCCTCC_LTGcore_GC_RTGcore_CT] (site CGCGCCCCTCC) (LTG core: GC, RTG core: CT)”, 0.198; in that of “CGCGCCCGTTGGGTTCTAACCTGTTGCGGAC [CGCGCCCCTCC_LTGcore_GT_RTGcore_GT] (site CGCGCCCCTCC) (LTG core: GT, RTG core: GT)”, 0.421.
For “CGCGCCCTCTGGGTTCTAACCTGTTGCGGAG [CGCGCCCCTCC_LTGcore_TC_RTGcore_CT] (site CGCGCCCCTCC) (LTG core: TC, RTG core: CT)”, the “recombinant barcode read abundance (log10)” value was determined as 0.264.
Regarding “CGCGCCCTCTGGGTTCTAACCTGTTGCGGGA [CGCGCCCCTCC_LTGcore_TC_RTGcore_TC] (site CGCGCCCCTCC) (LTG core: TC, RTG core: TC)”, the “recombinant barcode read abundance (log10)” value turned out to be 0.307.
“CGCGCCCTGTGGGTTCTAACCTGTTGCGGCA [CGCGCCCCTCC_LTGcore_TG_RTGcore_TG] (site CGCGCCCCTCC) (LTG core: TG, RTG core: TG)”: the “recombinant barcode read abundance (log10)” value worked out at 0.0883.
Next, “CGCGCCCTTTGGGTTCTAACCTGTTGCGGAA [CGCGCCCCTCC_LTGcore_TT_RTGcore_TT] (site CGCGCCCCTCC) (LTG core: TT, RTG core: TT)”: 0.156; “CGGTCCCAGTGGGTTCTAACCTGTTGCCACT [CGGTCCCCTTG_LTGcore_AG_RTGcore_AG] (site CGGTCCCCTTG) (LTG core: AG, RTG core: AG)”: 0.258.
Next, “CGGTCCCCTTGGGTTCTAACCTGTTGCCAAC [CGGTCCCCTTG_LTGcore_CT_RTGcore_GT] (site CGGTCCCCTTG) (LTG core: CT, RTG core: GT)”: 0.0684; “CGGTCCCCTTGGGTTCTAACCTGTTGCCAAT [CGGTCCCCTTG_LTGcore_CT_RTGcore_AT] (site CGGTCCCCTTG) (LTG core: CT, RTG core: AT)”: 0.133.
For “CGGTCCCCTTGGGTTCTAACCTGTTGCCACT [CGGTCCCCTTG_LTGcore_CT_RTGcore_AG] (site CGGTCCCCTTG) (LTG core: CT, RTG core: AG)”, the “recombinant barcode read abundance (log10)” value is 0.0728.
In the case of “CGGTCCCGCTGGGTTCTAACCTGTTGCCAAG [CGGTCCCCTTG_LTGcore_GC_RTGcore_CT] (site CGGTCCCCTTG) (LTG core: GC, RTG core: CT)” it was 0.313; in that of “CGGTCCCGCTGGGTTCTAACCTGTTGCCAGC [CGGTCCCCTTG_LTGcore_GC_RTGcore_GC] (site CGGTCCCCTTG) (LTG core: GC, RTG core: GC)”, 0.475; in that of “CGGTCCCGGTGGGTTCTAACCTGTTGCCACC [CGGTCCCCTTG_LTGcore_GG_RTGcore_GG] (site CGGTCCCCTTG) (LTG core: GG, RTG core: GG)”, 0.213.
